Source: patent publication US7205296B2, “Substituted 2H-1,3-benzoxazin-4(3H)-ones” (Portola Pharmaceuticals, Inc., priority 2004, dated 2007)

Assays:
platelet ADP receptors = molecular target: T1, platelet ADP receptors (Homo sapiens, UniProt Q9H244); test: ARB assay: inhibition of [3H]2-MeS-ADP binding to platelets; details: IC50 class, [3H]2-MeS-ADP binding to whole human platelets
T1 construct: endogenous in cells; host or cells: whole apyrase-washed human platelets (outdated from blood banks, or fresh)
T1 sequence (Q9H244 whole entry): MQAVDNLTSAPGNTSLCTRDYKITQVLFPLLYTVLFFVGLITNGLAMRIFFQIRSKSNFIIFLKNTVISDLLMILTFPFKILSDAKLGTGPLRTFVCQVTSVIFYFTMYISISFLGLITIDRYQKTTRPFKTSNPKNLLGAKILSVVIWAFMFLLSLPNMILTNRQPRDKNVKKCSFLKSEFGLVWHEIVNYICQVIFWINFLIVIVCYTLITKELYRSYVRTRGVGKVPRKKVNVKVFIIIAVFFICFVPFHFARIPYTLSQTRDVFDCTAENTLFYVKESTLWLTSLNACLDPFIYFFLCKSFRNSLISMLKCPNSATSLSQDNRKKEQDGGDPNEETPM
Description: II. Inhibition of [^3H]2-MeS-ADP Binding to Platelets
Utilizing the second assay the potency of inhibition of such compounds with respect to [^3H]2-MeS-ADP binding to whole platelets is determined. [^3H]2-MeS-ADP binding experiments are routinely performed with outdated human platelets collected by standard procedures at hospital blood banks. Apyrase-washed outdated platelets are prepared as follows (all steps at room temperature, if not indicated otherwise):
Outdated platelet suspensions are diluted with 1 volume of CGS and platelets pelleted by centrifugation at 1900×g for 45 minutes. Platelet pellets are resuspended at 3-6×10^9 platelets/ml in CGS containing 1 U/ml apyrase (grade V, Sigma, St. Louis, Mo.) and incubated for 15 minutes at 37° C. After centrifugation at 730×g for 20 minutes, pellets are resuspended in Hepes-Tyrode's buffer containing 0.1% BSA (Sigma, St. Louis, Mo.) at a concentration of 6.66×10^8 platelets/ml. Binding experiments are performed after >45 minutes resting of the platelets.
Alternatively, binding experiments are performed with fresh human platelets prepared as described in I. (Inhibition of ADP-Mediated Platelet Aggregation in vitro), except that platelets are resuspended in Hepes-Tyrode's buffer containing 0.1% BSA (Sigma, St. Louis, Mo.) at a concentration of 6.66×10^8 platelets/ml. Very similar results are obtained with fresh and outdated platelets.
A platelet ADP receptor binding assay using the tritiated potent agonist ligand [^3H]2-MeS-ADP (Jantzen, H. M. et al. (1999) Thromb. Hemost. 81:111–117) has been adapted to the 96-well microtiter format. In an assay volume of 0.2 ml Hepes-Tyrode's buffer with 0.1% BSA and 0.6% DMSO, 1×10^8 apyrase-washed platelets are preincubated in 96-well flat bottom microtiter plates for 5 minutes with serial dilutions of test compounds before addition of 1 nM [^3H]2-MeS-ADP ([^3H]2-methylthioadenosine-5′-diphosphate, ammonium salt; specific activity 48–49 Ci/mmole, obtained by custom synthesis from Amersham Life Science, Inc., Arlington Heights, Ill., or NEN Life Science Products, Boston, Mass.). Total binding is determined in the absence of test compounds. Samples for nonspecific binding may contain 10^−5 M unlabelled 2-MeS-ADP (RBI, Natick, Mass.). After incubation for 15 minutes at room temperature, unbound radioligand is separated by rapid filtration and two washes with cold (4–8° C.) Binding Wash Buffer (10 mM Hepes pH 7.4, 138 mM NaCl) using a 96-well cell harvester (Minidisc 96, Skatron Instruments, Sterling, Va.) and 8×12 GF/C glassfiber filtermats (Printed Filtermat A, for 1450 Microbeta, Wallac Inc., Gaithersburg, Md.). The platelet-bound radioactivity on the filtermats is determined in a scintillation counter (Microbeta 1450, Wallac Inc., Gaithersburg, Md.). Specific binding is determined by […] binding, and specific binding in the presence of test compounds is expressed as % of specific binding in the absence of test compounds dilutions.

[1] = tested on: ADP-induced human platelet aggregation; test: PRP assay: inhibition of ADP-mediated platelet aggregation in vitro; assay type: cell-based; details: IC50 class
Description: I. Inhibition of ADP-Mediated Platelet Aggregation in vitro
The effect of testing the compound according to the invention on ADP-induced human platelet aggregation is preferably assessed in 96-well microtiter assay (see generally the procedures in Jantzen, H. M. et al. (1999) Thromb. Hemost. 81:111–117). Human venous blood is collected from healthy, drug-free volunteers into ACD (85 mM sodium citrate, 111 mM glucose, 71.4 mM citric acid) containing PGI2 (1.25 ml ACD containing 1.6 μM PGI2/10 ml blood; PGI2 was from Sigma, St. Louis, Mo.). Platelet-rich plasma (PRP) is prepared by centrifugation at 160×g for 20 minutes at room temperature. Washed platelets are prepared by centrifuging PRP for 10 minutes at 730×g and resuspending the platelet pellet in CGS (13 mM sodium citrate, 30 mM glucose, 120 mM NaCl; 2 ml CGS/10 ml original blood volume) containing 1 U/ml apyrase (grade V, Sigma, St. Louis, Mo.). After incubation at 37° C. for 15 minutes, the platelets are collected by centrifugation at 730×g for 10 minutes and resuspended at a concentration of 3×10^8 platelets/ml in Hepes-Tyrode's buffer (10 mM Hepes, 138 mM NaCl, 5.5 mM glucose, 2.9 mM KCl, 12 mM NaHCO3, pH 7.4) containing 0.1% bovine serum albumin, 1 mM CaCl2 and 1 mM MgCl2. This platelet suspension is kept >45 minutes at 37° C. before use in aggregation assays.
Inhibition of ADP-dependent aggregation is preferably determined in 96-well flat-bottom microtiter plates using a microtiter plate shaker and plate reader similar to the procedure described by Frantantoni et al., Am. J. Clin. Pathol. 94, 613 (1990). All steps are performed at room temperature. The total reaction volume of 0.2 ml/well includes in Hepes-Tyrodes buffer/0.1% BSA: 4.5×10^7 apyrase-washed platelets, 0.5 mg/ml human fibrinogen (American Diagnostica, Inc., Greenwich, Conn.), serial dilutions of test compounds (buffer for control wells) in 0.6% DMSO. After about 5 minutes preincubation at room temperature, ADP is added to a final concentration of 2 μM which induces submaximal aggregation. Buffer is added instead of ADP to one set of control wells (ADP^− control). The OD of the samples is then determined at 490 nm using a microtiter plate reader (Softmax, Molecular Devices, Menlo Park, Calif.) resulting in the 0 minute reading. The plates are then agitated for 5 min on a microtiter plate shaker and the 5 minute reading is obtained in the plate reader. Aggregation is calculated from the decrease of OD at 490 nm at t=5 minutes compared to t=0 minutes and is expressed as % of the decrease in the ADP control samples after correcting for changes in the unaggregated control samples.

SMILES: CNc1cc2c(cc1F)C(=O)N(c1ccc(C(=O)NS(=O)(=O)c3ccc(Cl)s3)c(F)c1)CO2 [Example 57, N-(5-chlorothiophen-2-ylsulfonyl)-2-fluoro-4-(6-fluoro-7-(methylamino)-4-oxo-2H-benzo[e][1,3]oxazin-3(4H)-yl) benzamide]
- IC50 (platelet ADP receptors): < 0.05 µM
- IC50 [1]: > 30 µM
